Laboratory results published in PMC10444810, “Induction of open-form bile canaliculus formation by hepatocytes for evaluation of biliary drug excretion” (Communications Biology, 2023).
Values joined by “and” are separate entries in the source; they are usually repeats but may differ in a detail not shown here. Equal values may be shown once.

How the values were obtained:
[1] = biological target: T1, CYP2C19 (Homo sapiens, UniProt P33261); assay: Metabolic assay, cocktail substrate method ((S)-mephenytoin to 4’-hydroxymephenytoin); format: in vitro ADME; conditions: for Enzyme activity, Mean: mean of Well-1 to Well-4
T1 construct: host or cells: PXB-cells (icHep: JFC, HUM181001B; sandwich culture: JFC)
T1 sequence (P33261 whole entry): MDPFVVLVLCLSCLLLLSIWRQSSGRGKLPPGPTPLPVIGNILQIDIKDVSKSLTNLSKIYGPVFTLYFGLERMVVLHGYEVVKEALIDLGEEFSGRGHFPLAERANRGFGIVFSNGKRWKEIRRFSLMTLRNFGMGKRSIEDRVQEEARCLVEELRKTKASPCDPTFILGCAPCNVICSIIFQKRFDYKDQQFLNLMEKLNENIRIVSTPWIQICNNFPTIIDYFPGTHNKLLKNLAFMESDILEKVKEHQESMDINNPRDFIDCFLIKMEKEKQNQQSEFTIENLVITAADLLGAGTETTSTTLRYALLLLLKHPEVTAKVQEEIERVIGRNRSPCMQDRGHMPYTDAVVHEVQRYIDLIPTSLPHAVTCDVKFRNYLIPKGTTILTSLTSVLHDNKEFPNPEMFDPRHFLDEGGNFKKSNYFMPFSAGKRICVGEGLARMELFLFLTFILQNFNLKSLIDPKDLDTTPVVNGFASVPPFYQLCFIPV
Method: (§1) The metabolic activity of icHep and sandwich-cultured PXB-cells was measured using the cocktail substrate method of drug-metabolizing enzymes. The components of the cocktail are summarized in Supplementary Table 1. Assays were initiated by treating cells with TB containing cocktail substrates. Time point of each substrate was set when a linear increase in its metabolite production was observed. Concentrations of metabolites produced in the medium were measured by liquid chromatography-mass spectrometry (LC-MS/MS).

[2] = biological target: T2, CYP2C9 (Homo sapiens, UniProt P11712); assay: Metabolic assay, cocktail substrate method (diclofenac to 4’-hydroxydiclofenac); format: in vitro ADME; conditions: for Enzyme activity, Mean: mean of Well-1 to Well-4
T2 construct: host or cells: PXB-cells (icHep: JFC, HUM181001B; sandwich culture: JFC)
T2 sequence (P11712 whole entry): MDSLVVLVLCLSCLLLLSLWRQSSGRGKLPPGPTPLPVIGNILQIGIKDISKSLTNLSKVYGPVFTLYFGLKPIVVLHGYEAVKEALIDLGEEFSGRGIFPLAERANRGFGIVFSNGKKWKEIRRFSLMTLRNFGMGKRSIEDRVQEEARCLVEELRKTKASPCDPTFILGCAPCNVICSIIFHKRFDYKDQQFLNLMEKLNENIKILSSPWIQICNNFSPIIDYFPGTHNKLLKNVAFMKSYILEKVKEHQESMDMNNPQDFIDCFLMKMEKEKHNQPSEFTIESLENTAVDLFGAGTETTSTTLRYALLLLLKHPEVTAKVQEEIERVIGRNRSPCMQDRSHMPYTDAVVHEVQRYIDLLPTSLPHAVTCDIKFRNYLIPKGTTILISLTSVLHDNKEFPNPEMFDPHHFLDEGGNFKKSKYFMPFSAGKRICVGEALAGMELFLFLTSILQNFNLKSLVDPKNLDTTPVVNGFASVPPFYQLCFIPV
Method: as §1

[3] = test system: primary human hepatocytes / PXB-cells; assay: Counting hepatocyte bile canaliculi opening to the culture equipment (hemi-lumen formation rate); format: cell-based; conditions: for hemi-lumen formation rate: PXB-cells (donor), supports individually coated with each claudin; for Open bile canalicular formation rate (%) Mean / Open bile canalicular formation rate (%): icHep (JFC), claudin coating; for Open bile canalicular formation rate (%) Mean: mean of 3; for Open bile canalicular formation rate (%): single replicate
Method: Transwell^TM permeable support used was coated with 50 μg/ml rat tail collagen I (Corning) in 0.02 N acetic acid at room temperature for 1 h. Transwell^TM was washed twice with PBS, then the in vitro-synthesised claudin-1, -2, -3, and -9 proteins were applied to Transwell^TM at a density of 750 ng/cm^2 each and incubated at room temperature for 1 h. Transwell^TM was washed twice with PBS before seeding cells. Cryopreserved human hepatocytes (Donor ID. HU1663) were purchased from Thermo Fisher Scientific and thawed using CHRM. The hepatocytes were then diluted with WEM containing CM3000. PXB-cells (Donor ID. JFC, and HUM181001B) were obtained from PhoenixBio (Hiroshima, Japan) as described previously. […] PXB-cells were resuspended in 2% DMSO-supplemented hepatocyte growth medium (d-HCGM)[27]. Cryopreserved human hepatocytes and PXB-cells were seeded at a density of 2.1 × 10^5 cells/cm^2 in the protein-coated culture equipment. After 4 h of incubation, the culture medium was replaced with fresh culture medium to remove the unattached cells. After 24 h of incubation, the cells were cultured in d-HCGM supplemented with 250 μg/ml Matrigel. The spent medium was replaced with fresh medium every 3 days. Donor information for the human hepatocytes used is listed in Supplementary Table 2.
To count the open- and closed-type bile canaliculi, MRP2 immunostaining was performed using the Z-stack function of a confocal microscope (LSM710; Carl Zeiss, Oberkochen, Germany). Immunostaining was performed as previously described. The ratio of open-type bile canaliculi to the total number of bile canaliculi was calculated according to Eq. (1), and the value obtained was evaluated as the induction rate of open-type bile canaliculi. Here, Aopen bile canaliculi and Abile canaliculi indicate the number of open-type bile canaliculi and total number of bile canaliculi, respectively.1 Formationrate%=Aopenbilecanaliculi/Abilecanaliculi×100

[4] = PXB-cells (JFC), incubation time 45 min, single wells
[5] = PXB-cells (JFC), incubation time 60 min, single wells
[6] = PXB-cells (JFC), incubation time 90 min, single wells
[7] = icHep (HUM18100B), incubation time 15 min, single wells
[8] = icHep (HUM18100B), incubation time 30 min, single wells
[9] = icHep (HUM18100B), incubation time 45 min, single wells
[10] = icHep (HUM18100B), incubation time 60 min, single wells
[11] = icHep (HUM18100B), incubation time 90 min, single wells
[12] = icHep (HUM18100B), rate per single well
[13] = icHep (JFC), incubation time 15 min, single wells
[14] = icHep (JFC), incubation time 30 min, single wells
[15] = icHep (JFC), incubation time 45 min, single wells
[16] = icHep (JFC), incubation time 60 min, single wells
[17] = icHep (JFC), incubation time 90 min, single wells

Molecule: CC[C@@]1(c2ccc(O)cc2)NC(=O)N(C)C1=O [4'-hydroxymephenytoin]
- Enzyme activity ([1]; PXB-cells (JFC), incubation time 30 min, single wells): 56.4054 pmol/106 cells and 48.3281 pmol/106 cells and 62.3033 pmol/106 cells and 62.1838 pmol/106 cells
- Enzyme activity [1, 4]: 95.7591 pmol/106 cells and 93.7057 pmol/106 cells and 89.6102 pmol/106 cells and 94.8294 pmol/106 cells
- Enzyme activity [1, 5]: 136.786 pmol/106 cells and 120.497 pmol/106 cells and 123.843 pmol/106 cells and 115.035 pmol/106 cells
- Enzyme activity [1, 6]: 86.2332 pmol/106 cells and 112.727 pmol/106 cells and 89.0355 pmol/106 cells and 99.3009 pmol/106 cells
- Enzyme activity, Mean ([1]; PXB-cells (JFC)): 2.25 pmol/min/106 cells
- Enzyme activity [1, 7]: 50.5312 pmol/106 cells and 52.3394 pmol/106 cells and 56.2209 pmol/106 cells and 49.5383 pmol/106 cells
- Enzyme activity [1, 8]: 80.4095 pmol/106 cells and 100.579 pmol/106 cells and 91.6841 pmol/106 cells and 101.877 pmol/106 cells
- Enzyme activity [1, 9]: 142.367 pmol/106 cells and 129.072 pmol/106 cells and 120.304 pmol/106 cells and 122.788 pmol/106 cells
- Enzyme activity [1, 10]: 162.513 pmol/106 cells and 158.829 pmol/106 cells and 171.479 pmol/106 cells and 144.395 pmol/106 cells
- Enzyme activity [1, 11]: 188.684 pmol/106 cells and 187.153 pmol/106 cells and 171.43 pmol/106 cells and 198.851 pmol/106 cells
- Enzyme activity, Mean ([1]; icHep (HUM18100B)): 2.55 pmol/min/106 cells
- Enzyme activity [1, 12]: 3.06 pmol/min/106 cells and 2.56 pmol/min/106 cells and 2.14 pmol/min/106 cells and 2.44 pmol/min/106 cells
- Enzyme activity [1, 13]: 42.1708 pmol/106 cells and 39.5525 pmol/106 cells and 21.6896 pmol/106 cells and 37.3866 pmol/106 cells
- Enzyme activity [1, 14]: 65.4216 pmol/106 cells and 67.8652 pmol/106 cells and 74.7797 pmol/106 cells and 75.4174 pmol/106 cells
- Enzyme activity [1, 15]: 91.82 pmol/106 cells and 75.2152 pmol/106 cells and 103.29 pmol/106 cells and 100.957 pmol/106 cells
- Enzyme activity [1, 16]: 121.361 pmol/106 cells and 85.9573 pmol/106 cells and 140.345 pmol/106 cells and 108.521 pmol/106 cells
- Enzyme activity [1, 17]: 124.213 pmol/106 cells and 122.549 pmol/106 cells and 116.257 pmol/106 cells and 126.058 pmol/106 cells
- Enzyme activity, Mean ([1]; icHep (JFC)): 2.38 pmol/min/106 cells

Molecule: O=C(O)Cc1ccccc1Nc1c(Cl)cc(O)cc1Cl [4'-Hydroxydiclofenac]
- Enzyme activity ([2]; PXB-cells (JFC), incubation time 15 min, single wells): 32.4909 pmol/106 cells and 28.9867 pmol/106 cells and 32.417 pmol/106 cells and 39.4949 pmol/106 cells
- Enzyme activity [2, 4]: 103.35 pmol/106 cells and 157.866 pmol/106 cells and 142.816 pmol/106 cells and 89.3242 pmol/106 cells
- Enzyme activity [2, 5]: 194.793 pmol/106 cells and 123.239 pmol/106 cells and 152.615 pmol/106 cells and 131.028 pmol/106 cells
- Enzyme activity [2, 6]: 221.365 pmol/106 cells and 186.616 pmol/106 cells and 184.241 pmol/106 cells and 181.726 pmol/106 cells
- Enzyme activity, Mean ([2]; PXB-cells (JFC)): 3.17 pmol/min/106 cells
- Enzyme activity [2, 7]: 62.619 pmol/106 cells and 66.4901 pmol/106 cells and 58.8292 pmol/106 cells and 61.6593 pmol/106 cells
- Enzyme activity [2, 8]: 81.779 pmol/106 cells and 78.031 pmol/106 cells and 78.5116 pmol/106 cells and 74.8686 pmol/106 cells
- Enzyme activity [2, 9]: 182.486 pmol/106 cells and 164.871 pmol/106 cells and 179.779 pmol/106 cells and 151.258 pmol/106 cells
- Enzyme activity [2, 10]: 261.919 pmol/106 cells and 224.09 pmol/106 cells and 240.209 pmol/106 cells and 233.857 pmol/106 cells
- Enzyme activity [2, 11]: 338.304 pmol/106 cells and 344.261 pmol/106 cells and 316.721 pmol/106 cells and 314.843 pmol/106 cells
- Enzyme activity, Mean ([2]; icHep (HUM18100B)): 5.39 pmol/min/106 cells
- Enzyme activity [2, 12]: 6.00 pmol/min/106 cells and 4.87 pmol/min/106 cells and 5.39 pmol/min/106 cells and 5.30 pmol/min/106 cells
- Enzyme activity [2, 13]: 37.2763 pmol/106 cells and 45.1543 pmol/106 cells and 35.8326 pmol/106 cells and 34.722 pmol/106 cells
- Enzyme activity [2, 14]: 59.5169 pmol/106 cells and 77.189 pmol/106 cells and 52.7871 pmol/106 cells and 61.7238 pmol/106 cells
- Enzyme activity [2, 15]: 104.976 pmol/106 cells and 107.851 pmol/106 cells and 132.309 pmol/106 cells and 91.4661 pmol/106 cells
- Enzyme activity [2, 16]: 189.516 pmol/106 cells and 192.792 pmol/106 cells and 199.605 pmol/106 cells and 200.079 pmol/106 cells
- Enzyme activity [2, 17]: 261.512 pmol/106 cells and 227.854 pmol/106 cells and 218.992 pmol/106 cells and 224.098 pmol/106 cells
- Enzyme activity, Mean ([2]; icHep (JFC)): 4.42 pmol/min/106 cells
- Enzyme activity ([2]; icHep (JFC), rate per single well): 4.33 pmol/min/106 cells and 3.85 pmol/min/106 cells and 4.89 pmol/min/106 cells and 4.61 pmol/min/106 cells

B1: claudin-3: human claudin-3 protein from E. coli cell-free synthesis, coated on the permeable support (protein, UniProt O15551 1-220, looked up)
Claudin-3: MSMGLEITGTALAVLGWLGTIVCCALPMWRVSAFIGSNIITSQNIWEGLWMNCVVQSTGQMQCKVYDSLLALPQDLQAARALIVVAILLAAFGLLVALVGAQCTNCVQDDTAKAKITIVAGVLFLLAALLTLVPVSWSANTIIRDFYNPVVPEAQKREMGAGLYVGWAAAALQLLGGALLCCSCPPREKKYTATKVVYSAPRSTGPGASLGTGYDRKDYV
- hemi-lumen formation rate [3]: 38.6 ± 8.1%
- Open bile canalicular formation rate (%) Mean [3]: 38.6%
- Open bile canalicular formation rate (%) [3]: 34.6% and 33.3% and 48.0%

B2: claudin-1: human claudin-1 protein from E. coli cell-free synthesis, coated on the permeable support (protein, UniProt O95832 1-211, looked up)
Claudin-1: MANAGLQLLGFILAFLGWIGAIVSTALPQWRIYSYAGDNIVTAQAMYEGLWMSCVSQSTGQIQCKVFDSLLNLSSTLQATRALMVVGILLGVIAIFVATVGMKCMKCLEDDEVQKMRMAVIGGAIFLLAGLAILVATAWYGNRIVQEFYDPMTPVNARYEFGQALFTGWAAASLCLLGGALLCCSCPRKTTSYPTPRPYPKPAPSSGKDYV
- hemi-lumen formation rate [3]: 44.5 ± 4.8%
- Open bile canalicular formation rate (%) Mean [3]: 44.5%
- Open bile canalicular formation rate (%) [3]: 50.0% and 41.5% and 42.0%

B3: claudin-9: human claudin-9 protein from E. coli cell-free synthesis, coated on the permeable support (protein, UniProt O95484 1-217, looked up)
Claudin-9: MASTGLELLGMTLAVLGWLGTLVSCALPLWKVTAFIGNSIVVAQVVWEGLWMSCVVQSTGQMQCKVYDSLLALPQDLQAARALCVIALLLALLGLLVAITGAQCTTCVEDEGAKARIVLTAGVILLLAGILVLIPVCWTAHAIIQDFYNPLVAEALKRELGASLYLGWAAAALLMLGGGLLCCTCPPPQVERPRGPRLGYSIPSRSGASGLDKRDYV
- hemi-lumen formation rate [3]: 35.9 ± 6.4%
- Open bile canalicular formation rate (%) Mean [3]: 35.9%
- Open bile canalicular formation rate (%) [3]: 30.3% and 42.9% and 34.5%

B4: claudin-2: human claudin-2 protein from E. coli cell-free synthesis, coated on the permeable support (protein, UniProt P57739 1-230, looked up)
Claudin-2: MASLGLQLVGYILGLLGLLGTLVAMLLPSWKTSSYVGASIVTAVGFSKGLWMECATHSTGITQCDIYSTLLGLPADIQAAQAMMVTSSAISSLACIISVVGMRCTVFCQESRAKDRVAVAGGVFFILGGLLGFIPVAWNLHGILRDFYSPLVPDSMKFEIGEALYLGIISSLFSLIAGIILCFSCSSQRNRSNYYDAYQAQPLATRSSPRPGQPPKVKSEFNSYSLTGYV
- hemi-lumen formation rate [3]: 48.9 ± 12%
- Open bile canalicular formation rate (%) Mean [3]: 48.9%
- Open bile canalicular formation rate (%) [3]: 36.6% and 60.0% and 50.0%
